SMILES strings stand for the structures. Where a name gives a salt, the structure may show the parent alone. Where only a bound is given, the exact number is not on record here.

A word on the IC50: it is the concentration that gives 50% inhibition. Low values mean greater potency, high ones weaker potency.

The experiment deals with Endogenous Huntingtin Protein (HTT). The experiment is described as follows: Endogenous Huntingtin Protein Assay (ELISA-based MSD electrochemiluminescence). The format is cell-based. The settings on record: Table 1. As to the method: Compounds of Formula (I) were tested using the Meso Scale Discovery (MSD) Assay provided in International Application No. PCT/US2016/066042, filed on Dec. 11, 2016 and claiming priority to U.S. Provisional Application 62/265,652 filed on Dec. 10, 2015, published as International Publication No. WO 2017/100726 on Jun. 15, 2017, the entire contents of which are incorporated herein by reference.
The Endogenous Huntingtin Protein assay used in Example 1 was developed using the ELISA-based MSD electrochemiluminescence assay platform.
Endogenous Huntingtin Protein Assay
Meso Scale Discovery (MSD) 96-well or 384-well plates were coated overnight at 4° C. with MW1 (expanded polyglutamine) or MAB2166 monoclonal antibody (for capture) at a concentration of 1 μg/mL in PBS (30 μL per well). Plates were then washed three times with 300 µL wash buffer (0.05% Tween-20 in PBS) and blocked (100 μL blocking buffer; 5% BSA in PBS) for 4-5 hours at room temperature with rotational shaking and then washed three times with wash buffer.
Samples (25 μL) were transferred to the antibody-coated MSD plate and incubated overnight at 4° C. After removal of the lysates, the plate was washed three times with wash buffer, and 25 μL of #5656S (Cell signaling; rabbit monoclonal) secondary antibody (diluted to 0.25 μg/mL in 0.05% Tween-20 in blocking buffer) was added to each well and incubated with shaking for 1 Hour at room temperature. Following incubation with the secondary antibody, the wells were rinsed with wash buffer after which 25 μL of goat anti-rabbit SULFO TAG secondary detection antibody (required aspect of the MSD system) (diluted to 0.25 μg/mL in 0.05% Tween-20 in blocking buffer) was added to each well and incubated with shaking for 1 hour at room temperature. After rinsing three times with wash buffer, 150 μL of read buffer T with surfactant (MSD) were added to each empty well, and the plate was imaged on a SI 6000 imager (MSD) according to manufacturers' instructions provided for 96- or 384-well plates.
In general terms: In an ELISA, binding on a coated surface is turned into a signal by an enzyme label.
On to `Cc1cc(-c2cc(=O)n3cc(C4=CCNCC4)ccc3n2)nc2cn(C)nc12` [compound 863, 2-(2,7-dimethyl-2H-pyrazolo[4,3-b]pyridin-5-yl)-7-(1,2,3,6-tetrahydropyridin-4-yl)-4H-pyrido[1,2-a]pyrimidin-4-one hydrochloride (1:2)], for which the IC50 was 1 to 3 µM. `Cn1ccc2cc(-c3cc(=O)n4cc(N5CCNCC5)ccc4n3)cnc21` [compound 129, 2-(1-methyl-1H-pyrrolo[2,3-b]pyridin-5-yl)-7-(piperazin-1-yl)-4H-pyrido[1,2-a]pyrimidin-4-one] yielded an IC50 of 3 to 33 µM. For `O=c1cc(-c2ccc(-c3ccnc(O)c3)cc2O)nc2ccc(C3=CCNCC3)cn12` [compound 850, 2-[2-hydroxy-4-(2-hydroxypyridin-4-yl)phenyl]-7-(1,2,3,6-tetrahydropyridin-4-yl)-4H-pyrido[1,2-a]pyrimidin-4-one trifluoroacetate (1:1)] the value was 3 to 33 µM. For `Cc1cn2cc(-c3cc(=O)n4cc(N5CCNCC5)ccc4n3)cc(Cl)c2n1` [compound 287, 2-(8-chloro-2-methylimidazo[1,2-a]pyridin-6-yl)-7-(piperazin-1-yl)-4H-pyrido[1,2-a]pyrimidin-4-one] the value was 0.1 to 0.5 µM; for `CCc1nc(C)cn2nc(-c3cc(=O)n4cc(C5=CCNCC5)cc(C)c4n3)cc12` [compound 773, 2-(4-ethyl-6-methylpyrazolo[1,5-a]pyrazin-2-yl)-9-methyl-7-(1,2,3,6-tetrahydropyridin-4-yl)-4H-pyrido[1,2-a]pyrimidin-4-one], 3 to 33 µM. In turn, `Cn1cc2cc(-c3cc(=O)n4cc(N5CCN(CCO)CC5)ncc4n3)ccc2n1` [compound 591, 7-[4-(2-hydroxyethyl)piperazin-1-yl]-2-(2-methyl-2H-indazol-5-yl)-4H-pyrazino[1,2-a]pyrimidin-4-one] came in with an IC50 of 3 to 33 µM. As for `O=c1cc(-c2ccc3nccn3c2)nc2ccc(N3CCNCC3)cn12` [compound 108, 2-(imidazo[1,2-a]pyridin-6-yl)-7-(piperazin-1-yl)-4H-pyrido[1,2-a]pyrimidin-4-one], the figure is 3 to 33 µM; as for `CN1CCC(c2ccc3nc(-c4ccc5nn(C)cc5c4)cc(=O)n3c2)CC1` [compound 578, 2-(2-methyl-2H-indazol-5-yl)-7-(1-methylpiperidin-4-yl)-4H-pyrido[1,2-a]pyrimidin-4-one], 3 to 33 µM; as for `Cc1cn2nc(-c3cc(=O)n4cc(C5CCNCC5)nc(C)c4n3)ccc2n1` [compound 870, 9-methyl-2-(2-methylimidazo[1,2-b]pyridazin-6-yl)-7-(piperidin-4-yl)-4H-pyrazino[1,2-a]pyrimidin-4-one hydrochloride (1:2)], below 0.1 µM. `Cc1cn2nc(-c3cc(=O)n4cc(N5CCN[C@@H](C)C5)ccc4n3)cc2cn1` [compound 441, 7-[(3S)-3-methylpiperazin-1-yl]-2-(6-methylpyrazolo[1,5-a]pyrazin-2-yl)-4H-pyrido[1,2-a]pyrimidin-4-one]: the half-maximal inhibitory concentration (IC50) is 1 to 3 µM. As for `Cn1cc2cc(-c3cc(=O)n4cc(N5CCNCC5)ccc4n3)ccc2n1` [compound 137, 2-(2-methyl-2H-indazol-5-yl)-7-(piperazin-1-yl)-4H-pyrido[1,2-a]pyrimidin-4-one], the figure is 1 to 3 µM. As for `Cc1cn2nc(-c3cc(=O)n4cc(N5CCNC(C(F)(F)F)C5)ccc4n3)cc2c(C)n1` (centres unmarked) [compound 844, 2-(4,6-dimethylpyrazolo[1,5-a]pyrazin-2-yl)-7-[3-(trifluoromethyl)piperazin-1-yl]-4H-pyrido[1,2-a]pyrimidin-4-one], the IC50 fell in the range of 3 to 33 µM. In the case of `Cc1cn2nc(-c3cc(=O)n4cc(N5CCN6CCC[C@H]6C5)ccc4n3)cc2c(C)n1` [compound 336, 2-(4,6-dimethylpyrazolo[1,5-a]pyrazin-2-yl)-7-[(8aS)-hexahydropyrrolo[1,2-a]pyrazin-2(1H)-yl]-4H-pyrido[1,2-a]pyrimidin-4-one], the IC50 fell in the range of 3 to 33 µM. As for `CCN1CC=C(c2cn3c(=O)cc(-c4ccc5c(cnn5C)c4)nc3cn2)CC1` [compound 507, 7-(1-ethyl-1,2,3,6-tetrahydropyridin-4-yl)-2-(1-methyl-1H-indazol-5-yl)-4H-pyrazino[1,2-a]pyrimidin-4-one], the figure is 3 to 33 µM. For `Cc1cc(N2CCNCC2)cn2c(=O)cc(-c3ccc4nn(C)cc4c3)nc12` [compound 754, 9-methyl-2-(2-methyl-2H-indazol-5-yl)-7-(piperazin-1-yl)-4H-pyrido[1,2-a]pyrimidin-4-one] the value was 0.5 to 1 µM; for `C[C@@H]1CN(c2ccc3nc(-c4ccc5c(cnn5C)c4)cc(=O)n3c2)C[C@H](C)N1` [compound 552, 7-[(3R,5S)-3,5-dimethylpiperazin-1-yl]-2-(1-methyl-1H-indazol-5-yl)-4H-pyrido[1,2-a]pyrimidin-4-one], 3 to 33 µM. As for `Cc1cn2cc(-c3cc(=O)n4cc(N5CCN(C6CC6)CC5)ccc4n3)cc(F)c2n1` [compound 412, 7-(4-cyclopropylpiperazin-1-yl)-2-(8-fluoro-2-methylimidazo[1,2-a]pyridin-6-yl)-4H-pyrido[1,2-a]pyrimidin-4-one], the figure is 3 to 33 µM; as for `O=c1cc(-c2ccc3nc(C(F)(F)F)cn3c2)nc2ccc(N3CCNCC3)cn12` [compound 123, 7-(piperazin-1-yl)-2-[2-(trifluoromethyl)imidazo[1,2-a]pyridin-6-yl]-4H-pyrido[1,2-a]pyrimidin-4-one], 3 to 33 µM. Take `Cc1cn2nc(-c3cc(=O)n4cc(N5CCNCC5)ccc4n3)cc2c(C)n1` [compound 120, 2-(4,6-dimethylpyrazolo[1,5-a]pyrazin-2-yl)-7-(piperazin-1-yl)-4H-pyrido[1,2-a]pyrimidin-4-one]: the IC50 lay in the range of 1 to 3 µM. As for `CCc1nc(C)cn2nc(-c3cc(=O)n4cc(C5CCNCC5)ccc4n3)cc12` [compound 656, 2-(4-ethyl-6-methylpyrazolo[1,5-a]pyrazin-2-yl)-7-(piperidin-4-yl)-4H-pyrido[1,2-a]pyrimidin-4-one], the figure is 0.1 to 0.5 µM. In the case of `Cc1cc(-c2cc(=O)n3cc(C4CCN(C)CC4)ccc3n2)cc2cn(C)nc12` [compound 752, 2-(2,7-dimethyl-2H-indazol-5-yl)-7-(1-methylpiperidin-4-yl)-4H-pyrido[1,2-a]pyrimidin-4-one], the concentration for half-maximal inhibition (IC50) was 0.1 to 0.5 µM. As for `Cc1nc2ccc(-c3cc(=O)n4cc(C5=CCN(C)CC5)ncc4n3)cc2o1` [compound 422, 2-(2-methyl-1,3-benzoxazol-6-yl)-7-(1-methyl-1,2,3,6-tetrahydropyridin-4-yl)-4H-pyrazino[1,2-a]pyrimidin-4-one], the figure is 0.1 to 0.5 µM. For `Cc1cn2cc(-c3cc(=O)n4cc(N5CCN[C@@H](C)C5)ccc4n3)cc(C(F)(F)F)c2n1` [compound 735, 7-[(3S)-3-methylpiperazin-1-yl]-2-[2-methyl-8-(trifluoromethyl)imidazo[1,2-a]pyridin-6-yl]-4H-pyrido[1,2-a]pyrimidin-4-one] the value was 3 to 33 µM; for `O=c1cc(-c2ccc(OC(F)F)c(F)c2)nc2ccc(N3CCNCC3)cn12` [compound 838, 2-[4-(difluoromethoxy)-3-fluorophenyl]-7-(piperazin-1-yl)-4H-pyrido[1,2-a]pyrimidin-4-one], 3 to 33 µM; for `Cc1cn2nc(-c3cc(=O)n4cc(N5CCC(C)(N(C)C)CC5)ccc4n3)cc2c(C)n1` [compound 706, 7-[4-(dimethylamino)-4-methylpiperidin-1-yl]-2-(4,6-dimethylpyrazolo[1,5-a]pyrazin-2-yl)-4H-pyrido[1,2-a]pyrimidin-4-one], 3 to 33 µM.

On to `Cc1cn2nc(-c3cc(=O)n4cc(N5CCN(CCO)CC5)ccc4n3)cc2c(C)n1` [compound 531, 2-(4,6-dimethylpyrazolo[1,5-a]pyrazin-2-yl)-7-[4-(2-hydroxyethyl)piperazin-1-yl]-4H-], for which the IC50 lay within 3 to 33 µM.

In the case of `COc1cc(OS(=O)(=O)C(F)(F)F)ccc1-c1cc(=O)n2cc(C3=CCN(C(=O)OC(C)(C)C)CC3)ccc2n1` [compound 848, tert-butyl 4-[2-(2-methoxy-4-{[(trifluoromethyl)sulfonyl]oxy}phenyl)-4-oxo-4H-pyrido[1,2-a]pyrimidin-7-yl]-3,6-dihydropyridine-1(2H)-carboxylate], the IC50 was in the range of 3 to 33 µM. Consider `CN(C)c1ccc(-c2cc(=O)n3cc(C4=CCNCC4)ccc3n2)cn1` [compound 444, 2-[6-(dimethylamino)pyridin-3-yl]-7-(1,2,3,6-tetrahydropyridin-4-yl)-4H-pyrido[1,2-a]pyrimidin-4-one], for which the IC50 was 3 to 33 µM. As for `Cc1cn2cc(-c3cc(=O)n4cc(N5CCN6CCC[C@@H]6C5)ccc4n3)cc(F)c2n1` [compound 272, 2-(8-fluoro-2-methylimidazo[1,2-a]pyridin-6-yl)-7-[(8aR)-hexahydropyrrolo[1,2-a]pyrazin-2(1H)-yl]-4H-pyrido[1,2-a]pyrimidin-4-one], the figure is 0.5 to 1 µM.

Source of the values: patent US11382918B2, “Methods for treating Huntington's Disease” (PTC Therapeutics, Inc., priority 2017, dated 2022).
